ChEMBL document CHEMBL3992518, “Peptide Macrocycle Inhibitor of Coagulation Factor XII with Subnanomolar Affinity and High Target Selectivity” (J Med Chem, 2017)
Calls of active or inactive are those of the source. The rule behind the calls is not given here.

Tests used:
Coagulation factor XII = molecular target: T1, Coagulation factor XII (Homo sapiens, UniProt P00748); test: Inhibition of human beta factor 12a using fluorogenic substrate Boc-Gln-Gly-Arg-AMC preincubated for 10 mins followed by addition of substrate measured every min for 30 mins
T1 sequence (P00748 whole entry): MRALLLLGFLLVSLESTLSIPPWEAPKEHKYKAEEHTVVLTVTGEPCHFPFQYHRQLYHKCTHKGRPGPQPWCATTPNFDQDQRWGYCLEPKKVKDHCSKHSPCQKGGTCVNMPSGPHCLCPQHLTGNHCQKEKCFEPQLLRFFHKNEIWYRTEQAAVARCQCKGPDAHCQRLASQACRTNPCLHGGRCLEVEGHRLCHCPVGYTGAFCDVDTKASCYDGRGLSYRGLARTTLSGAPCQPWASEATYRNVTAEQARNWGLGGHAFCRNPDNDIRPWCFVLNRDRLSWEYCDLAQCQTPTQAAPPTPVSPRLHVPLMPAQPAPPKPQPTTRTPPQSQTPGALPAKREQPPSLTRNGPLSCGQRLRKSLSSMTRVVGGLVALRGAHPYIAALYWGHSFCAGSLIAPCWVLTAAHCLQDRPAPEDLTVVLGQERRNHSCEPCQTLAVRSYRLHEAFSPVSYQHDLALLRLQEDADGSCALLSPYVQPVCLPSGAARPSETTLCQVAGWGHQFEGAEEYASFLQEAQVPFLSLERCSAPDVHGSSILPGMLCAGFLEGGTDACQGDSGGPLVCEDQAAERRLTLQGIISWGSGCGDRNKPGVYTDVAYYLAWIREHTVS

[1] = Half life in human citrated plasma at 10 uM by mass spectrophotometric analysis; assay type: ADME, cell-free
[2] = molecular target: Coagulation factor XI (Homo sapiens) (UniProt P03951); test: Inhibition of human factor 11a at 40 uM using fluorogenic substrate Boc-Phe-Ser-Arg-AMC
[3] = molecular target: Plasminogen (Homo sapiens) (UniProt P00747); test: Inhibition of human plasmin at 40 uM using fluorogenic substrate H-D-Val-Leu-Lys-AMC
[4] = molecular target: Urokinase-type plasminogen activator (Homo sapiens) (UniProt P00749); test: Inhibition of human uPa at 40 uM using fluorogenic substrate Z-Gly-Gly-Arg-AMC
[5] = molecular target: Tissue-type plasminogen activator (Homo sapiens) (UniProt P00750); test: Inhibition of human tPa at 40 uM using fluorogenic substrate Z-Gly-Gly-Arg-AMC
[6] = molecular target: Prothrombin (Homo sapiens) (UniProt P00734); test: Inhibition of human thrombin at 40 uM using fluorogenic substrate Z-Gly-Gly-Arg-AMC
[7] = molecular target: Coagulation factor X (Homo sapiens) (UniProt P00742); test: Inhibition of human factor 10a at 40 uM using fluorogenic substrate D-Phe-Pro-Arg-ANSNH-C4H9
[8] = molecular target: T2, Coagulation factor VII (Homo sapiens) (UniProt P08709); test: Inhibition of human factor 7a at 40 uM using fluorogenic substrate D-Phe-Pro-Arg-ANSNH-C4H9
T2 sequence (whole entry): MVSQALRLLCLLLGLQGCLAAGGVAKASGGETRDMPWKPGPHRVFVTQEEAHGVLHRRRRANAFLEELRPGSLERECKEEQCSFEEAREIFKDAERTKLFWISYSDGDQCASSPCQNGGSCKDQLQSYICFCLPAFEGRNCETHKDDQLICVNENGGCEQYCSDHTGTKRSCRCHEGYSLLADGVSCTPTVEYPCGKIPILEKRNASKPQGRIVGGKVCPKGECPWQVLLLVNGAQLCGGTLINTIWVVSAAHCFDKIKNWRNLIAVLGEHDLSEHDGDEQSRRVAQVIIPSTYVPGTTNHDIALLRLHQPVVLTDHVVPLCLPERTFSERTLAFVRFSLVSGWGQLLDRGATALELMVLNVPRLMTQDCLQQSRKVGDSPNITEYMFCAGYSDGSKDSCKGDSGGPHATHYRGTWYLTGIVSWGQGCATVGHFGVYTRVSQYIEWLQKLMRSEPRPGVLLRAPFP

Homo sapiens [9] = species on record: Homo sapiens; test: Inhibition of human trypsin at 40 uM using fluorogenic substrate Z-Gly-Gly-Arg-AMC
Plasma kallikrein [10] = molecular target: T3, Plasma kallikrein (Homo sapiens, UniProt P03952); test: Inhibition of human plasma kallikrein at 40 uM using fluorogenic substrate Z-Phe-Arg-AMC
Homo sapiens [11] = species on record: Homo sapiens; test: Selectivity for human beta-factor 12a over human trypsin
Homo sapiens [12] = species on record: Homo sapiens; test: Selectivity for human beta-factor 12a over human factor 11a
Homo sapiens [13] = species on record: Homo sapiens; test: Selectivity for human beta-factor 12a over human plasmin
Homo sapiens [14] = species on record: Homo sapiens; test: Selectivity for human beta-factor 12a over human uPa
Homo sapiens [15] = species on record: Homo sapiens; test: Selectivity for human beta-factor 12a over human tPa
Homo sapiens [16] = species on record: Homo sapiens; test: Selectivity for human beta-factor 12a over human thrombin
Homo sapiens [17] = species on record: Homo sapiens; test: Selectivity for human beta factor 12a over human plasma kallikrein
Homo sapiens [18] = species on record: Homo sapiens; test: Selectivity for human beta-factor 12a over human factor 10a
Homo sapiens [19] = species on record: Homo sapiens; test: Selectivity for human beta-factor 12a over human factor 7a
Plasma [20] = test: Anticoagulant activity in human plasma assessed as concentration required to double activated partial thromboplastin time by coagulation analyser; assay type: functional
[21] = Inhibition of human trypsin using fluorogenic substrate Z-Gly-Gly-Arg-AMC
Plasma kallikrein [22] = molecular target: T3, Plasma kallikrein; test: Inhibition of human plasma kallikrein using fluorogenic substrate Z-Phe-Arg-AMC
Plasma [23] = test: Anticoagulant activity in human plasma assessed as change in prothrombin time up to 40 uM by coagulation analyser; assay type: functional, cell-free

T3 sequence (P03952 20-390 limits assumed): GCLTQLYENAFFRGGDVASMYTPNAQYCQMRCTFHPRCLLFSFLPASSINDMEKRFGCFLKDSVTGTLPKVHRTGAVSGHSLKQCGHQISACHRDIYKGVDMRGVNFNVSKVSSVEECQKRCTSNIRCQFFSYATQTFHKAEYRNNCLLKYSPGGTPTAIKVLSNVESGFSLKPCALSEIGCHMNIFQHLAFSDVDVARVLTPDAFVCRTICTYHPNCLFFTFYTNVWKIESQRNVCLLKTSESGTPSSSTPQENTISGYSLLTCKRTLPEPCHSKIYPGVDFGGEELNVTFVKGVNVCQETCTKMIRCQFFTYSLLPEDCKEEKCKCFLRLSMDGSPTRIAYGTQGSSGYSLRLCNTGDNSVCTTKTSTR
T3 sequence (P03952 391-638 limits assumed): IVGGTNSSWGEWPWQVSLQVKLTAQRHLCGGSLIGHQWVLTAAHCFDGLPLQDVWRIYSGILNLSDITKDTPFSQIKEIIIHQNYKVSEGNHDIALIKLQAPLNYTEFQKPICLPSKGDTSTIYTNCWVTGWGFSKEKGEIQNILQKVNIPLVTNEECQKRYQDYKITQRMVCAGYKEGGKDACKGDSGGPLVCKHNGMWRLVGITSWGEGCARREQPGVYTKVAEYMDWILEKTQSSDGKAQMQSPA
Plasminogen (Homo sapiens), sequence (P00747 97-580 limits assumed): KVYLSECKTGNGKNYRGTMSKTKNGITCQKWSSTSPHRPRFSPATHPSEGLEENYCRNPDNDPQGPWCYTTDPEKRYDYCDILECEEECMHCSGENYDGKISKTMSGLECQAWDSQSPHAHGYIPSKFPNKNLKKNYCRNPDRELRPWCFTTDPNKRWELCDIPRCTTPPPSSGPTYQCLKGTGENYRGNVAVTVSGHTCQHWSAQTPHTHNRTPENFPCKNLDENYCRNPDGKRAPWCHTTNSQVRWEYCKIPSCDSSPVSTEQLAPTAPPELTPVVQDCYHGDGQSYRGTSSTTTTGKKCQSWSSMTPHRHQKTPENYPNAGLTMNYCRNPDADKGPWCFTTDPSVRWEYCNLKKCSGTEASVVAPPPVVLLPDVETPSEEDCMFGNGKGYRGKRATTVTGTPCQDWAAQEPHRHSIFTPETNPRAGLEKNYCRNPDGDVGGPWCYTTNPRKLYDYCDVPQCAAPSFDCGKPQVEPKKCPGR
Plasminogen (Homo sapiens), sequence (P00747 581-810 limits assumed): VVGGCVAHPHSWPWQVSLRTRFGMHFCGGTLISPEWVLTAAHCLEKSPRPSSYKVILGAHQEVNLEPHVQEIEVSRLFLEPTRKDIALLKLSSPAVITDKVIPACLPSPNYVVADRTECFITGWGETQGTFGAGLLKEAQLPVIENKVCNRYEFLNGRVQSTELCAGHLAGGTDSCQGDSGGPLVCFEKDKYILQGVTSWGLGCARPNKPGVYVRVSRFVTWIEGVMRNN
Coagulation factor X (Homo sapiens), sequence (P00742 41-179 limits assumed): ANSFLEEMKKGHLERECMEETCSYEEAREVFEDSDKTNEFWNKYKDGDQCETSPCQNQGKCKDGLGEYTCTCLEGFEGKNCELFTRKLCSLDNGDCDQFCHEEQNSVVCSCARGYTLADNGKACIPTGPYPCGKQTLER
Coagulation factor X (Homo sapiens), sequence (P00742 235-488 limits assumed): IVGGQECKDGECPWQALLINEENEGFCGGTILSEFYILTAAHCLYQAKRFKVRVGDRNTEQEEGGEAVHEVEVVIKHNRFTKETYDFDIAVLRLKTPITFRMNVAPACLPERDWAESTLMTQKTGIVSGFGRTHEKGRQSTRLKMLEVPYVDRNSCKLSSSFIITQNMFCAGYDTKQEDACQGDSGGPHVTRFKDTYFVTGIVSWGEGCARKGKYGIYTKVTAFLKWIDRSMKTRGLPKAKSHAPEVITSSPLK
Tissue-type plasminogen activator (Homo sapiens), sequence (P00750 36-562 limits assumed): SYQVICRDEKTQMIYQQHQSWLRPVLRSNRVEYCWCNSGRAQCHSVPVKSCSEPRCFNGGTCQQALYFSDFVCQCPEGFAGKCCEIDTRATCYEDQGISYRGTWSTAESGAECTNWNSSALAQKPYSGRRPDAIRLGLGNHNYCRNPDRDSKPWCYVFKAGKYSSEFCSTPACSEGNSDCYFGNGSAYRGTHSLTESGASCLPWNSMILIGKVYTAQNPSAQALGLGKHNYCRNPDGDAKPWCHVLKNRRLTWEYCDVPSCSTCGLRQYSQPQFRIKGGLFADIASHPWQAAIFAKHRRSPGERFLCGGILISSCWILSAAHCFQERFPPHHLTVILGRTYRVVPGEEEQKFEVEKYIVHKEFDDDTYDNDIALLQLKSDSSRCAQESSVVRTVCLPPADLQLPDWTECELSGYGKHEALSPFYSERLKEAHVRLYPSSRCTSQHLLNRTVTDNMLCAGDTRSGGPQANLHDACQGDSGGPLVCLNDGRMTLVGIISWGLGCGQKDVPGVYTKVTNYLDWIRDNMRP
Coagulation factor XI (Homo sapiens), sequence (P03951 19-387 limits assumed): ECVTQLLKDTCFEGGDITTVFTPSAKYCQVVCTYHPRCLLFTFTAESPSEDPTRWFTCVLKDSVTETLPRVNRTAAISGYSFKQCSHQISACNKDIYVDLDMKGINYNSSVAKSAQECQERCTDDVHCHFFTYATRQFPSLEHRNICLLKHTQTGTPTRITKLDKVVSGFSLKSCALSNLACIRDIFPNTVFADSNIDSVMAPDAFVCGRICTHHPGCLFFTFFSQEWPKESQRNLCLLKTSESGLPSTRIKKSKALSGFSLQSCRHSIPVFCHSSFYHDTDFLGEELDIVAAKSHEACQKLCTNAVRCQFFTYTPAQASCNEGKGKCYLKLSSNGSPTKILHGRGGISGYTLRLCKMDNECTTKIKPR
Coagulation factor XI (Homo sapiens), sequence (P03951 388-625 limits assumed): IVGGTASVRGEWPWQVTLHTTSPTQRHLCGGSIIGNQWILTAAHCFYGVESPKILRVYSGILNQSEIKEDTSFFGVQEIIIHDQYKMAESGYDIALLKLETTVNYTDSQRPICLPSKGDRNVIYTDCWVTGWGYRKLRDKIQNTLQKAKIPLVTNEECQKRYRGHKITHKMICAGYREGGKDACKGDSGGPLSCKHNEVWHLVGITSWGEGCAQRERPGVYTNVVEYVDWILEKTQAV

Ki (Coagulation factor XII) [nM] | half-life at 10 µM [1] [h] | inhibition (Homo sapiens [9]) | inhibition (Plasma kallikrein [10]) | SMILES | 2aPTT (Plasma [20]) [µM] | Activity (Plasma [20]) | Activity (Plasma [23]) | also measured
6.5 | 2 | – | – | CC(C)C[C@@H]1NC(=O)[C@H](CCC(N)=O)NC(=O)[C@H](CCCNC(=N)N)NC(=O)[C@@H]2CSCCC(=O)N3CN(CN(C3)C(=O)CCSC[C@@H](C(=O)N[C@@H](CCCNC(=N)N)C(=O)O)NC(=O)[C@H](CCCNC(=N)N)NC1=O)C(=O)CCSC[C@H](NC(=O)[C@H](N)CCCCCN)C(=O)N[C@@H](Cc1ccccc1)C(=O)N[C@@H](CCCNC(=N)N)C(=O)N[C@@H](CC(C)C)C(=O)N1CCC[C@H]1C(=O)N2 | – | – | – | –
1.63 | 16 | > 50% | > 50% | CC(C)C[C@@H]1NC(=O)[C@H](CCC(N)=O)NC(=O)[C@H](CCCNC(=N)N)NC(=O)[C@@H]2CSCCC(=O)N3CN(CN(C3)C(=O)CCSC[C@H](NC(=O)[C@@H](N)CCNC(=N)N)C(=O)N[C@@H](Cc3ccc(F)cc3)C(=O)N[C@@H](CCCNC(=N)N)C(=O)N[C@@H](CC(C)C)C(=O)N3CCC[C@H]3C(=O)N2)C(=O)CCSC[C@@H](C(=O)N[C@@H](CCCNC(=N)N)C(=O)O)NC(=O)[C@H](CCCNC(=N)N)NC1=O | 2 | Dose-dependent effect | inactive | inhibition [2]: < 20%; inhibition [3]: < 20%; inhibition [4]: < 20%; inhibition [5]: < 20%; inhibition [6]: < 20%; inhibition [7]: < 20%; inhibition [8]: < 20%; Selectivity ratio (Homo sapiens [11]): 800; Selectivity ratio (Homo sapiens [12]): 27000; Selectivity ratio (Homo sapiens [13]): 27000; Selectivity ratio (Homo sapiens [14]): 27000; Selectivity ratio (Homo sapiens [15]): 27000; Selectivity ratio (Homo sapiens [16]): 27000; Selectivity ratio (Homo sapiens [17]): 27000; Selectivity ratio (Homo sapiens [18]): 27000; Selectivity ratio (Homo sapiens [19]): 27000; Ki [21]: 1300 nM; Ki (Plasma kallikrein [22]): 45100 nM
– | 4 | Active | Active | CC(C)C[C@@H]1NC(=O)[C@H](CCC(N)=O)NC(=O)[C@H](CCCNC(=N)N)NC(=O)[C@@H]2CSCCC(=O)N3CN(CN(C3)C(=O)CCSC[C@H](NC(=O)[C@@H](N)CCCNC(=N)N)C(=O)N[C@@H](Cc3ccccc3)C(=O)N[C@@H](CCCNC(=N)N)C(=O)N[C@@H](CC(C)C)C(=O)N3CCC[C@H]3C(=O)N2)C(=O)CCSC[C@@H](C(=O)N[C@@H](CCCNC(=N)N)C(=O)O)NC(=O)[C@H](CCCNC(=N)N)NC1=O | 2.9 | Dose-dependent effect | inactive | –
8.8 | 5 | – | – | CC(C)C[C@@H]1NC(=O)[C@H](CCC(N)=O)NC(=O)[C@H](CCCNC(=N)N)NC(=O)[C@@H]2CSCCC(=O)N3CN(CN(C3)C(=O)CCSC[C@@H](C(=O)N[C@@H](CCCNC(=N)N)C(=O)O)NC(=O)[C@H](CCCNC(=N)N)NC1=O)C(=O)CCSC[C@H](NC(=O)[C@H](N)CCCCNC(=N)N)C(=O)N[C@@H](Cc1ccccc1)C(=O)N[C@@H](CCCNC(=N)N)C(=O)N[C@@H](CC(C)C)C(=O)N1CCC[C@H]1C(=O)N2 | – | – | – | –
14 | 22 | – | – | CC(C)C[C@@H]1NC(=O)[C@H](CCC(N)=O)NC(=O)[C@H](CCCNC(=N)N)NC(=O)[C@@H]2CSCCC(=O)N3CN(CN(C3)C(=O)CCSC[C@@H](C(=O)N[C@@H](CCCNC(=N)N)C(=O)O)NC(=O)[C@H](CCCNC(=N)N)NC1=O)C(=O)CCSC[C@H](NC(=O)[C@H](N)CCNC(=N)N)C(=O)N[C@@H](Cc1ccccc1)C(=O)N[C@@H](CCCNC(=N)N)C(=O)N[C@@H](CC(C)C)C(=O)N1CCC[C@H]1C(=O)N2 | – | – | – | –
